Results taken from PMC6694116, “A CRISPR-Cas12a-derived biosensing platform for the highly sensitive detection of diverse small molecules” (Nature Communications, 2019).

Experiments:
HosA = HosA (Escherichia coli, UniProt P69782); assay: EMSA, dissociation of operator dsDNA; format: binding; settings: pH 7.5, room temperature; allosteric effector
CBD-HosA = CBD-HosA (Escherichia coli, UniProt P69782); assay: EMSA, dissociation of operator dsDNA; format: binding; settings: 1.8 mM p-HBA in the specificity test; pH 7.5, room temperature; allosteric effector; also Cas12a read-out with immobilised protein
Chain of CBD-HosA (P69782 whole entry): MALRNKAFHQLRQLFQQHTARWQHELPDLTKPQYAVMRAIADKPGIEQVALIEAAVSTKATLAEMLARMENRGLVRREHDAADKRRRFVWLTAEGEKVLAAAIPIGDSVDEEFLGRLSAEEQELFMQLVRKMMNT

CBD-TetR [1] = target: CBD-TetR (Escherichia coli, UniProt P04483); settings: pH 7.5, room temperature; allosteric effector
Chain of CBD-TetR (Escherichia coli, UniProt P04483) (P04483 whole entry): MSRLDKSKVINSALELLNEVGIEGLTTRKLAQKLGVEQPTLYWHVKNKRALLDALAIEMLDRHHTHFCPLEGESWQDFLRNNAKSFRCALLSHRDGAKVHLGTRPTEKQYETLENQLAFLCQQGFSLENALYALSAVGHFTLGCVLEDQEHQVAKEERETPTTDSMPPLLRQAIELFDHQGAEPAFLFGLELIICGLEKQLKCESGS

CBD-HucR [2] = target: T1, CBD-HucR (Deinococcus radiodurans, UniProt Q9RV71); assay: EMSA, dissociation of operator dsDNA; format: binding; settings: 0.05-500 uM uric acid; pH 7.5, room temperature; allosteric effector; also Cas12a read-out with immobilised protein
T1 construct: gene DR_1159
T1 sequence (Q9RV71 1-181): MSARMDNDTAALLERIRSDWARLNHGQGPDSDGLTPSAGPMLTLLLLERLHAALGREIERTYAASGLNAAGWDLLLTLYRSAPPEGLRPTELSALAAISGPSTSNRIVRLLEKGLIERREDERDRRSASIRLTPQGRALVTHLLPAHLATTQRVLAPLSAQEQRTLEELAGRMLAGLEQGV

CBD-HucR [3] = target: T2, CBD-HucR (UniProt Q9RV71 1-181); assay: EMSA; 25-200 nM protein, 40 nM DNA; EMSA: 10 mM Tris-HCl pH 7.5, 100 mM KCl, 1 mM EDTA, 0.1 mM DTT, 5% glycerol, 0.01 mg/mL BSA, room temperature 30 min; 1.5% agarose gel in Tris-borate-EDTA at 4; settings: protein: recombinant; tags: CBD fused via (SGGGG)4 linker; His tag; chain copies: 2; blunt
T2 sequence: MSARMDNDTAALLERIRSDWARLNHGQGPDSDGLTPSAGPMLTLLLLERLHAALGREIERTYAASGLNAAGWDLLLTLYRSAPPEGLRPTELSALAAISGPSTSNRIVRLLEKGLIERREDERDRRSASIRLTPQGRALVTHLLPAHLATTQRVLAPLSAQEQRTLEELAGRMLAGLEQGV

CBD-TetR [4] = target: CBD-TetR (UniProt P04483 1-207); assay: as above; settings: protein: recombinant; tags: CBD fused via (SGGGG)4 linker; His tag; chain copies: 2; blunt
Chain of CBD-TetR (UniProt P04483 1-207) (P04483 whole entry, the tested form may be a part): as the sequence (P04483 whole entry) above

Chain of HosA (P69782 whole entry): as the sequence (P69782 whole entry) above

Molecule: O=C(O)c1ccc(O)cc1 [p-HBA, p-hydroxybenzoic acid]
- EMSA, dissociation of operator dsDNA (HosA): there were no significant differences between HosA and CBD-HosA on gel-shift images
- EMSA, dissociation of operator dsDNA (CBD-HosA): p-HBA induced the almost complete dissociation of dsDNA from the CBD–HosA–dsDNA complex

Molecule: CN(C)[C@@H]1C(=O)C(C(N)=O)=C(O)[C@@]2(O)C(=O)C3=C(O)c4c(O)cccc4[C@@](C)(O)[C@H]3C[C@@H]12 [tetracycline]
- EMSA, dissociation of operator dsDNA (CBD-TetR [1]): Both CBD-TetR and CBD-HosA show perfect dsDNA-binding and effector-induced allosteric activities

Molecule: O=c1[nH]c(=O)c2[nH]c(=O)[nH]c2[nH]1 [uric acid]
- EMSA, dissociation of operator dsDNA (CBD-HucR [2]): increasing amounts of dsDNA dissociated from the CBD–HucR–dsDNA complex

B1: dsDNA(HucR) (dsDNA)
DNA 1: TACTGAGCCATGTATCCAGGTCATTGTACTTAGATGTCTACCTAAGCTCTGACAGTTCCA
DNA 2: TGGAACTGTCAGAGCTTAGGTAGACATCTAAGTACAATGACCTGGATACATGGCTCAGTA
- binding result (CBD-HucR [3]): binds

B2: dsDNA(TetR) (dsDNA)
DNA 1: TGAGCCATGTATCCAGGTCATTTGTCCCTATCAGTGATAGAGAAGCTCTGACAGTTCCA
DNA 2: TGGAACTGTCAGAGCTTCTCTATCACTGATAGGGACAAATGACCTGGATACATGGCTCA
- binding result (CBD-TetR [4]): binds
